Data as given in patent US12553041B2, “Formulations and doses of pegylated uricase” (Cartesian Therapeutics Inc., priority 2019, dated 2026).
Values joined by “and” are separate entries in the source; they are usually repeats but may differ in a detail not shown here. Equal values may be shown once. Read-outs that look alike come from different tables or passages of the source.

Tests used:
[1] = system: patients with hyperuricemia and gout; conditions: cited from earlier work; for Subjects that required treatment for at least one gout flare: first 8 weeks, with gout flare prophylaxis; for Flares per patient month (flare frequency): worked out from literature data
patients with gout = conditions: cited from earlier work; for Patients with gout flares requiring treatment in a month: colchicine prophylaxis; for Flares per patient month (flare frequency): worked out from literature data
[2] = system: mice genetically deficient in endogenous uricase; assay: Proof of concept study in uricase deficient mice; assay type: in vivo
Protocol: A pharmacology study in mice that were genetically deficient in endogenous uricase was conducted. The study evaluated the efficacy of a dose regimen consisting of three immunizations with SEL 212 followed by doses of pegsiticase alone in preventing the formation of ADAs to pegsiticase. The treatment period consisted of the first 14 days of the study. In the study, mice were separated into three treatment groups. During the treatment period: • the first group, referred to as the Untreated Group, received no treatment; • the second group, referred to as the Pegsiticase Group, was treated with pegsiticase alone; and • the third group, referred to as the SVP Rapamycin+Pegsiticase Group, was treated with SVP Rapamycin co administered with pegsiticase.
The Pegsiticase Group and SVP Rapamycin+Pegsiticase Group were treated on days zero, seven and 14 of the treatment period. Each group was then treated with pegsiticase alone on days 35 and 42 of the study, or the challenge period. Uricase specific ADA levels were recorded to determine the formation of ADAs to pegsiticase. Uric acid levels were measured to determine effectiveness of SVP Rapamycin co administered with pegsiticase in lowering uric acid levels below 6 mg/dl, which is the treatment target for gout patients.

nonhuman primates = assay: Proof of concept study in nonhuman primates, uricase specific ADAs; assay type: in vivo; conditions: pegsiticase alone, five monthly doses; by the end of the study
Protocol: A preclinical study to evaluate the ability of SVP Rapamycin to mitigate the formation of uricase specific ADAs in nonhuman primates was also conducted. As depicted in FIG. 3, during the study: • pegsiticase was administered alone, referred to as the Empty Nanoparticle Group, or • was co-administered with one of two dose levels of SVP Rapamycin, referred to as the SVP Rapamycin 0.1× and SVP Rapamycin 1× Groups, respectively. The SVP Rapamycin 0.1× Group received a dose level of SVP Rapamycin of 0.3 mg/kg and the SVP Rapamycin 1× Group received a dose level of SVP Rapamycin of 3 mg/kg.
The Empty Nanoparticle Group received three monthly doses of pegsiticase and each of the SVP Rapamycin 0.1× Group and SVP Rapamycin 1× Group received three monthly doses of pegsiticase co-administered with SVP Rapamycin. All groups then received two monthly doses of pegsiticase alone. The SVP Rapamycin 0.1× Group received one tenth of the dose administered in the SVP Rapamycin 1× Group.

[3] = system: subjects with elevated serum uric acid levels greater than 6 mg/dl; assay: Phase 1a clinical trial, single intravenous infusion of pegsiticase alone; assay type: in vivo
Protocol: The Phase 1a clinical trial for SEL 212 was an ascending dose trial of pegsiticase alone in 22 subjects with elevated serum uric acid levels greater than 6 mg/dl who were separated into five cohorts. Each cohort received a single intravenous infusion of pegsiticase at the following dose levels of 0.1 mg/kg for Cohort #1, 0.2 mg/kg for Cohort #2, 0.4 mg/kg for Cohort #3, 0.8 mg/kg for Cohort #4 and 1.2 mg/kg for Cohort #5. Dosing began with the lowest dose and only after an entire cohort was safely dosed was the next cohort started.
FIG. 4 depicts average serum uric acid levels of the Phase 1a clinical trial's five cohorts tested at different measurement intervals (Day 7, 14, 21 and 30) during the course of the 30 day period following the single intravenous infusion of pegsiticase at the outset of the trial.
The serum uric acid levels were measured at baseline and days seven, 14, 21 and 30 and uricase specific ADA levels at baseline and days seven, 14 and 30 following a single intravenous injection of pegsiticase. Uricase specific ADA levels at day 21 in the Phase 1a clinical trial were not measured. Based on the results from the Phase 1a clinical trial, it was observed that pegsiticase at a tolerated dose is capable of achieving and maintaining a reduction of serum uric acid below the target of 6 mg/dl for a 30 day period in the absence of inhibitory uricase specific ADAs.

anti-uricase IgG = assay: Anti-uricase antibody titer by sandwich ELISA, monthly dosing in symptomatic gout patients; assay type: in vivo, human
Protocol: Safety, tolerability, sUA, ADAs, and uricase activity were monitored.
In this example, “responder” indicates an individual with serum uric acid values […] and serum uric acid ≤1 mg/dL on day 21 (stopping rule). In this example, a “non-responder” is a subject having serum uric acid levels ≥6 mg/dL at any time during a 28 day dosing cycle. The “maximum titer” is the maximum titer observed during a 28 day dosing cycle.
Anti-uricase antibodies were detected using a sandwich ELISA. […] Uricase activity was measured fluorometrically.

uricase activity = conditions: human, in vivo
Protocol: Methods: Patients with symptomatic gout (≥1 tophus, gout flare within 6 months or gouty arthropathy) and elevated SUA ≥6 mg/dL were treated with fixed doses of the pegylated uricase (0.2 mg/kg) in combination with SEL-110 (0.1 and 0.15 mg/kg), or the pegylated uricase (0.2 or 0.4 mg/kg) alone as a control. Patients were infused in 28-day cycles up to 5 times. Safety, tolerability, sUA, ADAs, and uricase activity were monitored.
Uricase activity was measured fluorometrically. As uricase converts uric acid into allantoin and H2O2, horseradish peroxidase was added and reached with H2O2 and a fluorescent probe to yield a quantifiable signal.

[4] = system: patients with serum uric acid levels greater than 6 mg/dl; assay: Phase 1b clinical trial, SVP Rapamycin alone, pegsiticase alone or SEL 212
Protocol: The Phase 1b clinical trial enrolled 63 patients with serum uric acid levels greater than 6 mg/dl separated into 11 cohorts. A single intravenous infusion of SVP Rapamycin alone at the following ascending dose levels was administered to four cohorts in ascending order. Each cohort consisted of seven patients and were designated as follows: Cohort #1 (0.03 mg/kg), Cohort #3 (0.1 mg/kg), Cohort #5 (0.3 mg/kg) and Cohort #7 (0.5 mg/kg) collectively the SVP Rapamycin Cohorts. After a cohort of the SVP-Rapamycin alone had successfully and safely been dosed the corresponding dose level of SVP Rapamycin was combined with a fixed dose of pegsiticase (0.4 mg/kg). The combination was co-administered sequentially as a single intravenous infusion, with the SVP Rapamycin infusion preceding the pegsiticase infusion. The cohort designation is as follows for the six cohorts (5 patients per cohort), which were Cohort #2 (SVP Rapamycin 0.03 mg/kg+0.4 mg/kg pegsiticase), Cohort #4 (SVP Rapamycin 0.1 mg/kg+0.4 mg/kg pegsiticase), Cohort #6 (SVP Rapamycin 0.3 mg/kg+0.4 mg/kg pegsiticase), Cohort #10 (0.4 mg/kg pegsiticase+0.03 mg/kg SVP Rapamycin separated by 48 hours), Cohort #12 (SVP Rapamycin 0.15 mg/kg+0.4 mg/kg pegsiticase) and Cohort #14 (SVP Rapamycin 0.1 mg/kg+0.4 mg/kg pegsiticase) collectively the SEL 212 Cohorts. In Cohort #9 a fixed amount of pegsiticase alone at a dose level of 0.4 mg/kg was administered to five patients, which is referred to as the Pegsiticase Cohort. […] The subjects were monitored during a 30 day period post infusion with visits occurring on day 7, 14,21 and the end of trial visit on day 30. Blood and serum of each patient was evaluated for serum uric acid, ADAs (specifically anti-PEG, anti-uricase and anti-pegsiticase) and safety parameters. The primary objective of the Phase 1b clinical trial was to evaluate the safety and tolerability of SVP Rapamycin alone and in combination with a fixed dose of pegsiticase. A secondary clinical objective was to evaluate the ability of SVP Rapamycin co-administered with pegsiticase to reduce serum uric acid levels and mitigate the formation of uricase specific ADAs when compared to administration of pegsiticase alone.

[5] = system: patients with refractory gout; conditions: cited from earlier work; for Flares per patient month (flare frequency): worked out from literature data; for Mean uric acid levels at four weeks: monthly dosing

Cc1nc(-c2ccc(OCC(C)C)c(C#N)c2)sc1C(=O)O [Febuxostat, febuxostat]
Subjects that required treatment for at least one gout flare ([1]; 80 mg/day, out of 255 subjects): 55 | Flares per patient month (flare frequency) ([1]; 80 mg/day): 0.22 flares per patient month | Flares per patient month (flare frequency) ([1]; 80 mg/day, listed as febuxostat): at least 0.22 flares per patient month | Subjects that required treatment for at least one gout flare ([1]; 120 mg/day, out of 250 subjects): 90 | Flares per patient month (flare frequency) ([1]; 120 mg/day): 0.36 flares per patient month | Flares per patient month (flare frequency) ([1]; 120 mg/day, listed as febuxostat): ≥ 0.36 flares per patient month

O=C(O)CSc1nnc(Br)n1-c1ccc(C2CC2)c2ccccc12 [Lesinurad, lesinurad]
Patients with gout flares requiring treatment in a month (patients with gout; 200 mg daily, out of 46 patients): 10 | Time of efficacy (area under curve of mean AIN levels over time) (patients with gout; 200 mg/day): 158.5 | Flares per patient month (flare frequency) (patients with gout; 200 mg/day): 0.22 flares per patient month | Patients with gout flares requiring treatment in a month (patients with gout; 400 mg daily, out of 42 patients): 13 | Time of efficacy (area under curve of mean AIN levels over time) (patients with gout; 400 mg/day): 165.8 | Flares per patient month (flare frequency) (patients with gout; 400 mg/day): 0.31 flares per patient month | Patients with gout flares requiring treatment in a month (patients with gout; 600 mg daily, out of 48 patients): 15 | Time of efficacy (area under curve of mean AIN levels over time) (patients with gout; 600 mg/day): 167.5 | Flares per patient month (flare frequency) (patients with gout; 600 mg/day): 0.31 flares per patient month

Recombinant Pegylated Candida Urate Oxidase [pegsiticase]
Uric acid levels ([2]; after the first dose in the treatment period): below 6 mg/dl | Uric acid levels ([2]; subsequent doses in the treatment period and challenge period): > 6 mg/dL | Uricase specific ADA levels (antibody formation) ([2]; uricase deficient mice, treatment period (days 0, 7, 14) and challenge period (days 35, 42)): developed uricase specific ADAs | Uricase specific ADAs (nonhuman primates): high levels of uricase specific ADAs | Flare in 1st month ([3]; individual subject with history of gout, SEL-037 0.8 mg/kg): no | Flare in 1st month ([3]; individual subjects with history of gout, SEL-037 0.1 mg/kg, 0.1 mg/kg): no and yes (2×) and yes (positive for | Flare in 1st month ([3]; individual subjects with history of gout, SEL-037 0.2 mg/kg, 0.2 mg/kg): no and yes (mild gout, right | Subjects with a history of gout with signs of gout flare in the first month ([3]; pegsiticase alone, 4 out of 7 patients): 57% | Onset of reduction of average serum uric acid levels ([3]; single IV infusion, 0.1 to 1.2 mg/kg): within hours | Serious adverse events and tolerability ([3]; single IV infusion, five dose levels 0.1 to 1.2 mg/kg): no serious adverse events and was well tolerated | Uricase specific ADAs ([3]; single IV infusion, varying levels): induced uricase specific ADAs in all subjects | Serum uric acid maintained ([3]; tolerated dose, 30 day period, in the absence of inhibitory uricase specific ADAs): < 6 mg/dL | Treatment periods with maximum antibody titers <1080 (anti-uricase IgG; 28-day cycles, SEL-212 111/133, pegylated uricase alone 1/7 treatment periods): 14.3% | Anti-uricase antibodies (anti-uricase IgG; pegylated uricase alone, discontinued from the study within the first two months): developed high titer antibodies | Average uricase activity AUC (uricase activity): 3437 mU/dL*wk | Subjects that returned to baseline serum uric acid levels by day 30 ([4]; Cohort #9: pegsiticase alone 0.4 mg/kg): four of the five | Enzyme activity past day 14 ([4]; pegsiticase alone 0.4 mg/kg, Cohort #3 Phase 1a and Cohort #9 Phase 1b): loose the enzyme activity | Uricase specific ADA formation ([4]; pegsiticase alone 0.4 mg/kg, Cohort #3 Phase 1a and Cohort #9 Phase 1b, resulting in return to baseline serum uric acid): uricase specific ADA formation at day 14 | Serum uric acid, initial control ([4]; pegsiticase alone 0.4 mg/kg, Cohort #3 Phase 1a and Cohort #9 Phase 1b, up to day 14): below 6 mg/dL

pegloticase [KRYSTEXXA®]
Treated subjects that developed ADAs ([5]; all KRYSTEXXA-treated subjects): 89% | Flares per patient over the first 3 months ([5]; biweekly pegloticase, 85 patients): 2.3 flares per patient | Time of efficacy (area under curve of mean AIN levels over time) ([5]; biweekly, nonresponders): Nonresponders-84.35 | Time of efficacy (area under curve of mean AIN levels over time) ([5]; biweekly, responders): Responders-26.6 | Flares per patient month (flare frequency) ([5]; biweekly): 0.77 flares per patient month | Subjects classified as non-responders ([5]; monthly dosing cohorts): 65% | Subjects classified as responders (uric acid below 6 mg/dl for 80% of the time at months three and six) ([5]; monthly dosing cohorts): 35% | Mean uric acid levels at four weeks ([5]; non-responders): above 6 mg/dl | Mean uric acid levels at four weeks ([5]; responders): above 4 mg/dl | Flares per patient over the first 3 months ([5]; monthly pegloticase, 84 patients): 2.7 flares per patient | Time of efficacy (area under curve of mean AIN levels over time) ([5]; monthly, nonresponders): Nonresponders-99.75 | Time of efficacy (area under curve of mean AIN levels over time) ([5]; monthly, responders): Responders-53.55 | Flares per patient month (flare frequency) ([5]; monthly, listed as Pegloticase): 0.90 flares per patient month | Flares per patient month (flare frequency) ([5]; monthly, listed as pegloticase): 0.9 flares per patient month
